We go through 3 compounds from patent publication US9296725B2, “Heterocyclyl pyrimidine analogues as TYK2 inhibitors” (Cellzome Limited, priority 2012, dated 2016).

The term pIC50 denotes the IC50 on a negative log10 scale, so that one unit is a factor of ten.

One assay deals with T1, JAK2 (Homo sapiens, UniProt O60674).
T1 construct: endogenous in cells; host or cells: Molt4 (ATCC CRL-1582) and Ramos (ATCC CRL-1596), mixed lysate 1:2
Kind of assay: Kinobeads assay, JAK2 (competition binding in mixed Molt4/Ramos cell lysate, dot blot detection). The note with it: read-out: JAK2 Band (Kinobeads assay potency, IC50). Put shortly: (§1)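 Competition binding: compound dilutions (1:3 series, 9 steps) plus immobilized aminopyrido-pyrimidine beads incubated 3 h in the cold with mixed Molt4/Ramos lysate (1:2) at 10 mg/mL protein. Bead-bound JAK2/TYK2 eluted and quantified by antibody dot blot with infrared detection; IC50 from dose-response curves.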

The next assay has as its target T2, TYK2 (Homo sapiens, UniProt P29597).
T2 construct: endogenous in cells; host or cells: Molt4 (ATCC CRL-1582) and Ramos (ATCC CRL-1596), mixed lysate 1:2
Kind of assay: Kinobeads assay, TYK2 (competition binding in mixed Molt4/Ramos cell lysate, dot blot detection). The note with it: Kinobeads assay, Molt4/Ramos lysate; read-out: TYK2 Band (Kinobeads assay potency, IC50). Put shortly: as §1

pIC50: −log10 of the molar value. A value given as a limit tells only on which side of the number the result lay.

T1 sequence (O60674 whole entry): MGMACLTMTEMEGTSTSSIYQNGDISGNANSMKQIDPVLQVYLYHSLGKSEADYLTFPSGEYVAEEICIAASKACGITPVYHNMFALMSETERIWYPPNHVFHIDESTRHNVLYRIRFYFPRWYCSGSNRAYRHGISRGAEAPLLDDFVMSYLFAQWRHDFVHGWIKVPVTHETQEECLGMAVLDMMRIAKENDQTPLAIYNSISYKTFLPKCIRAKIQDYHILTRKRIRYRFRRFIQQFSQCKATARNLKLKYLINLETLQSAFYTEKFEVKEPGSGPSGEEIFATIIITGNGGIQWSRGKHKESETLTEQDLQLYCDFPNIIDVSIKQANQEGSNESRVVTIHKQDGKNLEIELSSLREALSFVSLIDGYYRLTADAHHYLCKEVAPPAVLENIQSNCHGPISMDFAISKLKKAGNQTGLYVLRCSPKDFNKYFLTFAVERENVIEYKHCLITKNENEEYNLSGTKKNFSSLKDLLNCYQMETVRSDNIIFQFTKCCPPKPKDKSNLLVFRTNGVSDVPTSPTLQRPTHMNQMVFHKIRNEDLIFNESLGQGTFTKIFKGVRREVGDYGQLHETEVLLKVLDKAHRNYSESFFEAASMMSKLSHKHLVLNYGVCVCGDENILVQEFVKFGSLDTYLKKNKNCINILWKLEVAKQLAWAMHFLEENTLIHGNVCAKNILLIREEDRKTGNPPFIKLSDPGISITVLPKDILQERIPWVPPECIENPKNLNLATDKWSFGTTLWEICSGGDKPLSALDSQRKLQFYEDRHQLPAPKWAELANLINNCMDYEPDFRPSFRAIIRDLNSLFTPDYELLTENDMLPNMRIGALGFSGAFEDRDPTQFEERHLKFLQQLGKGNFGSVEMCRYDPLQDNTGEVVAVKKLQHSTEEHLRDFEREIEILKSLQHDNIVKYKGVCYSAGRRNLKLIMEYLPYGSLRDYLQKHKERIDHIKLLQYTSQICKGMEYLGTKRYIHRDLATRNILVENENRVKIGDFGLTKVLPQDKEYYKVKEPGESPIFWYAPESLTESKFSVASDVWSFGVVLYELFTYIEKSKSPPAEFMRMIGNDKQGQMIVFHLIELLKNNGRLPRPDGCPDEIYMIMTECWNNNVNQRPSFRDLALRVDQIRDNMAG
T2 sequence (P29597 whole entry): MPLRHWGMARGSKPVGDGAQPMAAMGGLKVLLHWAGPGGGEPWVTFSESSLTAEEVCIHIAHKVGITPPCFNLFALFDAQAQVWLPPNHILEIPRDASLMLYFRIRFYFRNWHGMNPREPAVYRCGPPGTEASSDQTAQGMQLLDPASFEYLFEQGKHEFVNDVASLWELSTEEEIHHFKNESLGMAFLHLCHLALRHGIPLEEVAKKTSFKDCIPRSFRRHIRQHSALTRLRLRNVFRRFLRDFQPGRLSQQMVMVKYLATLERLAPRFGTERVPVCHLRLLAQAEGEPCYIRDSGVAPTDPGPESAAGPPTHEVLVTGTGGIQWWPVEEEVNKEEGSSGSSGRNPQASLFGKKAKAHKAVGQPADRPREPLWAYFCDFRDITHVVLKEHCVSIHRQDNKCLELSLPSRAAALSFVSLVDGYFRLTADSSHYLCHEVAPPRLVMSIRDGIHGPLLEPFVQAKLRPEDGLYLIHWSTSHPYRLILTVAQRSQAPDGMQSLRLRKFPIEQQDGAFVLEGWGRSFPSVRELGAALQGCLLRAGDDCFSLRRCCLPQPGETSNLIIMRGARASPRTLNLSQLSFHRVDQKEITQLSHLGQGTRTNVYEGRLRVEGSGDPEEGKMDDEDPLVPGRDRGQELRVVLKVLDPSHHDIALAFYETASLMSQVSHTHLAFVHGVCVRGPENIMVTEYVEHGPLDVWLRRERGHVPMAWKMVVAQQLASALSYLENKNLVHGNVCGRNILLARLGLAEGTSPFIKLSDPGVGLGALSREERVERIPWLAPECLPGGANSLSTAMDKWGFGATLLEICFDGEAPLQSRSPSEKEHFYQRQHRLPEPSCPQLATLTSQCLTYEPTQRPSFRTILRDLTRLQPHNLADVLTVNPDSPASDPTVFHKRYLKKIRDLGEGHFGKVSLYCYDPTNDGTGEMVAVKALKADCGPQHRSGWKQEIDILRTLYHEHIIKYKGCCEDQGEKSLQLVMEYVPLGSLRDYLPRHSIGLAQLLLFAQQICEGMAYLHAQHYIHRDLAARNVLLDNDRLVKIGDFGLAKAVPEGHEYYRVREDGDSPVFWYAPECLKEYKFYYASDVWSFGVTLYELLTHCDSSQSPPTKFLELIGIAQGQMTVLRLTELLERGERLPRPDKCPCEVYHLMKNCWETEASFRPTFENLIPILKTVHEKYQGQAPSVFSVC

On to `Cc1cnc(Nc2cnn(CC(F)F)c2)nc1NCc1ccccc1S(C)(=O)=O` [Example I-478], for which the pIC50 at JAK2 is less than 5.00; on TYK2 it was 5.00 to 6.00.
For `O=C(Cn1cc(Nc2nccc(NCc3c(F)cc(F)cc3F)n2)cn1)NC1CCOC1` (stereo not drawn) [Example I-95] the same measures were 5.00 to 6.00 and 7.00 to 8.00.
In the same order, the values of `Cc1cnc(Nc2cnn(CC(F)(F)F)c2)nc1NCc1cc(F)cc(F)c1` [Example I-350] are 5.00 to 6.00 and 5.00 to 6.00.
